Data published in the CheMixHub ionic liquid set.
± gives the uncertainty stated by the source.

Experiment: xn = mol fraction of the nth substance listed
Conditions: 101 kPa

CC(=O)[O-].CC[NH+](CC)CC + CS(C)=O
viscosity [mPa·s]
Conditions	298.15 K	303.15 K	308.15 K
x2 = 0	24.12 ± 0.61	19.64 ± 0.5	16.13 ± 0.41
x2 = 0.0534	22.91 ± 0.58	18.67 ± 0.48	15.35 ± 0.39
x2 = 0.0936	22.01 ± 0.56	17.94 ± 0.46	14.76 ± 0.38
x2 = 0.1496	20.75 ± 0.53	16.93 ± 0.43	13.94 ± 0.36
x2 = 0.1837	19.99 ± 0.51	16.31 ± 0.42	13.44 ± 0.34
x2 = 0.2154	19.28 ± 0.49	15.74 ± 0.4	12.98 ± 0.33
x2 = 0.2836	17.76 ± 0.45	14.51 ± 0.37	11.98 ± 0.31
x2 = 0.3204	16.94 ± 0.43	13.85 ± 0.36	11.44 ± 0.29
x2 = 0.3837	15.53 ± 0.4	12.71 ± 0.33	10.51 ± 0.27
x2 = 0.4536	13.97 ± 0.36	11.45 ± 0.3	9.49 ± 0.25
x2 = 0.5169	12.56 ± 0.32	10.31 ± 0.27	8.56 ± 0.22
x2 = 0.5647	11.49 ± 0.3	9.45 ± 0.25	7.86 ± 0.21
x2 = 0.6447	9.71 ± 0.25	8.01 ± 0.21	6.69 ± 0.18
x2 = 0.7301	7.81 ± 0.2	6.48 ± 0.17	5.45 ± 0.15
x2 = 0.7884	6.52 ± 0.17	5.44 ± 0.15	4.61 ± 0.12
x2 = 0.839	5.41 ± 0.15	4.55 ± 0.12	3.89 ± 0.11
x2 = 0.8848	4.42 ± 0.12	3.76 ± 0.1	3.24 ± 0.09
x2 = 0.9121	3.84 ± 0.11	3.29 ± 0.09	2.86 ± 0.08
x2 = 0.9393	3.26 ± 0.09	2.82 ± 0.08	2.48 ± 0.07
x2 = 0.9649	2.72 ± 0.08	2.39 ± 0.07	2.13 ± 0.06
x2 = 0.9764	2.48 ± 0.07	2.2 ± 0.07	1.98 ± 0.06

CCCC[n+]1ccn(C)c1.CS(=O)(=O)[O-] + O
Conditions	electrical conductivity [S/m]	viscosity [mPa·s]
298.15 K, x2 = 0.6542	–	31.9 ± 1.5
298.15 K, x2 = 0.7014	–	25.2 ± 1.2
298.15 K, x2 = 0.7494	–	19.09 ± 0.9
298.15 K, x2 = 0.796	1.23 ± 0.061	–
298.15 K, x2 = 0.951	4.06 ± 0.2	–
298.15 K, x2 = 0.975	–	1.643 ± 0.077
299.15 K, x1 = 0.008	2.11 ± 0.11	–
299.15 K, x2 = 0.892	2.96 ± 0.15	–
299.15 K, x2 = 0.951	4.12 ± 0.21	–
300.15 K, x1 = 0.004	1.24 ± 0.062	–
301.15 K, x2 = 0.861	2.53 ± 0.13	–
302.15 K, x2 = 0.861	2.61 ± 0.13	–
305.15 K, x1 = 0.004	1.37 ± 0.068	–
305.15 K, x2 = 0.861	2.84 ± 0.14	–
306.15 K, x1 = 0.004	1.4 ± 0.07	–
307.15 K, x1 = 0.008	2.51 ± 0.13	–
308.15 K, x1 = 0.019	4.06 ± 0.2	–
308.15 K, x2 = 0.861	3.08 ± 0.15	–
308.15 K, x2 = 0.968	4.94 ± 0.25	–
309.15 K, x2 = 0.968	5.03 ± 0.25	–
310.15 K, x1 = 0.019	4.22 ± 0.21	–
310.15 K, x2 = 0.861	3.25 ± 0.16	–
310.15 K, x2 = 0.892	4.03 ± 0.2	–
310.15 K, x2 = 0.968	5.11 ± 0.26	–
311.15 K, x2 = 0.861	3.35 ± 0.17	–
313.15 K, x2 = 0.892	4.42 ± 0.22	–
313.15 K, x2 = 0.9004	–	3.71 ± 0.2
315.15 K, x2 = 0.968	5.63 ± 0.28	–
316.15 K, x2 = 0.951	6.44 ± 0.32	–
317.15 K, x1 = 0.004	1.7 ± 0.085	–
317.15 K, x2 = 0.951	6.52 ± 0.33	–
317.15 K, x2 = 0.968	5.83 ± 0.29	–
318.15 K, x2 = 0.929	5.89 ± 0.29	–
319.15 K, x2 = 0.861	4.14 ± 0.21	–
319.15 K, x2 = 0.968	6.08 ± 0.3	–
320.15 K, x1 = 0.004	1.79 ± 0.09	–
320.15 K, x1 = 0.019	5.15 ± 0.26	–
320.15 K, x2 = 0.892	5.23 ± 0.26	–
320.15 K, x2 = 0.968	6.17 ± 0.31	–
321.15 K, x2 = 0.968	6.3 ± 0.32	–
322.15 K, x2 = 0.892	5.48 ± 0.27	–
322.15 K, x2 = 0.929	6.42 ± 0.32	–
323.15 K, x2 = 0.8015	–	6.16 ± 0.43
323.15 K, x2 = 0.9503	–	1.503 ± 0.071
323.15 K, x2 = 0.951	7.08 ± 0.35	–
324.15 K, x1 = 0.004	1.91 ± 0.096	–
324.15 K, x1 = 0.008	3.39 ± 0.17	–
324.15 K, x1 = 0.019	5.48 ± 0.27	–
324.15 K, x2 = 0.892	5.72 ± 0.29	–
325.15 K, x1 = 0.008	3.45 ± 0.17	–
325.15 K, x1 = 0.019	5.57 ± 0.28	–
325.15 K, x2 = 0.929	6.93 ± 0.35	–
326.15 K, x1 = 0.004	1.98 ± 0.099	–
326.15 K, x2 = 0.929	6.92 ± 0.35	–
326.15 K, x2 = 0.968	6.88 ± 0.34	–
327.15 K, x2 = 0.861	5.02 ± 0.25	–
327.15 K, x2 = 0.929	7.05 ± 0.35	–
328.15 K, x1 = 0.019	5.74 ± 0.29	–
328.15 K, x2 = 0.951	7.6 ± 0.38	–
329.15 K, x2 = 0.968	7.25 ± 0.36	–
331.15 K, x1 = 0.019	6.08 ± 0.3	–
331.15 K, x2 = 0.861	5.49 ± 0.28	–
332.15 K, x2 = 0.929	7.74 ± 0.39	–
332.15 K, x2 = 0.951	8.16 ± 0.41	–
333.15 K, x2 = 0.7014	–	8.05 ± 0.39
333.15 K, x2 = 0.8015	–	4.67 ± 0.22
333.15 K, x2 = 0.9004	–	2.3 ± 0.11
333.15 K, x2 = 0.9503	–	1.24 ± 0.058
333.15 K, x2 = 0.968	7.66 ± 0.38	–
334.15 K, x2 = 0.968	7.78 ± 0.39	–
335.15 K, x1 = 0.004	2.24 ± 0.11	–
336.15 K, x1 = 0.004	2.27 ± 0.11	–
336.15 K, x2 = 0.951	8.7 ± 0.43	–
337.15 K, x2 = 0.861	6.31 ± 0.32	–
337.15 K, x2 = 0.929	8.44 ± 0.42	–
338.15 K, x1 = 0.019	6.52 ± 0.33	–
338.15 K, x2 = 0.861	6.33 ± 0.32	–
338.15 K, x2 = 0.951	8.96 ± 0.45	–
339.15 K, x2 = 0.968	8.41 ± 0.42	–
341.15 K, x2 = 0.892	7.89 ± 0.4	–
342.15 K, x1 = 0.004	2.44 ± 0.12	–
342.15 K, x2 = 0.861	6.89 ± 0.34	–
342.15 K, x2 = 0.892	7.96 ± 0.4	–
343.15 K, x1 = 0.004	2.46 ± 0.12	–
343.15 K, x2 = 0.6542	–	7.44 ± 0.37
343.15 K, x2 = 0.8521	–	2.67 ± 0.13
343.15 K, x2 = 0.892	8.05 ± 0.4	–
344.15 K, x2 = 0.929	9.45 ± 0.47	–
345.15 K, x1 = 0.004	2.53 ± 0.13	–
345.15 K, x2 = 0.951	10 ± 0.5	–
345.15 K, x2 = 0.968	8.98 ± 0.45	–
346.15 K, x1 = 0.008	4.56 ± 0.23	–
346.15 K, x2 = 0.951	10.1 ± 0.51	–
347.15 K, x2 = 0.861	7.63 ± 0.38	–
347.15 K, x2 = 0.892	8.62 ± 0.43	–
348.15 K, x1 = 0.004	2.61 ± 0.13	–
348.15 K, x2 = 0.892	8.76 ± 0.44	–
349.15 K, x2 = 0.861	7.79 ± 0.39	–
349.15 K, x2 = 0.951	10.6 ± 0.53	–
350.15 K, x1 = 0.019	7.75 ± 0.39	–
352.15 K, x1 = 0.019	7.98 ± 0.4	–
352.15 K, x2 = 0.951	10.9 ± 0.54	–
353.15 K, x1 = 0.004	2.76 ± 0.14	–
353.15 K, x2 = 0.861	8.33 ± 0.42	–
353.15 K, x2 = 0.951	11.1 ± 0.56	–
354.15 K, x2 = 0.861	8.44 ± 0.42	–
355.15 K, x1 = 0.004	2.83 ± 0.14	–
355.15 K, x2 = 0.968	10.3 ± 0.52	–
356.15 K, x1 = 0.004	2.82 ± 0.14	–
357.15 K, x1 = 0.004	2.86 ± 0.14	–
357.15 K, x2 = 0.929	11.3 ± 0.56	–
357.15 K, x2 = 0.951	11.3 ± 0.57	–
358.15 K, x2 = 0.892	10.1 ± 0.51	–
